Counter-ions that a name gives are not always drawn.
Tests used:
complement system = conditions: reported in cited literature; cited from earlier work
[1] = tested on: hereditary angioneurotic edema; conditions: The New England Journal of Medicine, 286, 808-812 (1972); cited from earlier work
activated human C1 = test: Test, Code 026 (C1 inhibitor); format: biochemical; conditions: in vitro; two-fold serial dilution assay; higher well number indicates higher activity
Description: (§1) An active inhibitor protects C2 from C1 and C4; (ii) Test, Code 035 (C3-C9 inhibitor)--This test determines the ability of the late components of human complement (C3-C9) to lyse EAC 142 in the presence of appropriate dilutions of the test compound. An active inhibitor protects EAC 142 from lysis by human C3-C9; (iii) Test, Code 036 (C-Shunt inhibitor)--In this test human erythrocytes rendered fragile are lysed in autologous serum via the shunt pathway activated by cobra venom factor in the presence of appropriate dilutions of the test compound. Inhibition of the shunt pathway results in failure of lysis; (iv) Forssman Vasculitis Test--Here, the well known complement dependent lesion, Forssman vasculitis, is produced in guinea pigs by intradermal injection of rabbit anti-Forssman antiserum. […]
(§2) With reference to Table I, guinea pigs weighing about 300 g were dosed intravenously (i.v.) or intraperitoneally (i.p.) with 200 mg/kg of the test compound dissolved in saline and adjusted to pH 7-8. […] Percent inhibition was calculated by comparison with simultaneous controls. […]

[2] = tested on: late components of human complement (C3-C9); test: Test, Code 035 (C3-C9 inhibitor), lysis of EAC 142; format: cell-based; conditions: in vitro; two-fold serial dilution assay; higher well number indicates higher activity
Description: as §1, §2

[3] = tested on: shunt pathway activated by cobra venom factor; test: Test, Code 036 (C-Shunt inhibitor), lysis of human erythrocytes in autologous serum; format: cell-based; conditions: in vitro; two-fold serial dilution assay; higher well number indicates higher activity
Description: as §1, §2

[4] = tested on: whole complement in serum; test: Complement Level Reduction Test in dosed guinea pigs (capillary tube assay); format: in vivo; conditions: guinea pig, intraperitoneal, 200 mg/kg

| Compound | anticomplementary effect / inhibition of the complement system (complement system) | use in treatment of hereditary angioneurotic edema [1] | also measured |
| --- | --- | --- | --- |
| Nc1ccc2cc(S(=O)(=O)O)cc(O)c2c1N=Nc1ccc(NC(=O)Nc2ccc(N=Nc3c(N)ccc4cc(S(=O)(=O)O)cc(O)c34)c(S(=O)(=O)O)c2)cc1S(=O)(=O)O [chlorazol fast pink, 3,3'-ureylenebis-[6-(2-amino-8-hydroxy-6-sulfo-1-naphthylazo)]benzenesulfonic acid, tetrasodium salt] | anticomplementary effect | – | – |
| NC[C@H]1CC[C@H](C(=O)O)CC1 [tranexamic acid] | – | used with success | – |
| NCCCCCC(=O)O [epsilon-aminocaproic acid] | – | used with success | – |
| heparin | anticomplementary effect | – | – |
| Cc1ccc(C(=O)Nc2ccc(S(=O)(=O)O)c3cc(S(=O)(=O)O)cc(S(=O)(=O)O)c23)cc1NC(=O)c1cccc(NC(=O)Nc2cccc(C(=O)Nc3cc(C(=O)Nc4ccc(S(=O)(=O)O)c5cc(S(=O)(=O)O)cc(S(=O)(=O)O)c45)ccc3C)c2)c1 [Suramin] | competitive inhibitor of the complement system | used with success | – |
| Cc1c(NC(=S)Nc2cc(S(=O)(=O)[O-])cc3cc(S(=O)(=O)[O-])cc(S(=O)(=O)[O-])c23)cc(S(=O)(=O)[O-])cc1NC(=S)Nc1cc(S(=O)(=O)[O-])cc2cc(S(=O)(=O)[O-])cc(S(=O)(=O)[O-])c12.[Na+].[Na+].[Na+].[Na+].[Na+].[Na+].[Na+] [8,8'-[(2-methyl-5-sulfo-1,3-phenylene)bis(2-thioureylene)]di-1,3,6-naphthalenetrisulfonic acid heptasodium salt] | – | – | C1 026* Wells (activated human C1): +7 Wells; C-Late 035* Wells [2]: N; Shunt Inhibition 036* Wells [3]: N; % change in serum complement level ([4]; 30 minutes): -40%; % change in serum complement level ([4]; 60 minutes): -40%; % change in serum complement level ([4]; 120 minutes): -51% |

— US4120893A, “Anionic naphthalene thioureido toluenesulfonic acids” (American Cyanamid Company, priority 1977, dated 1978)
